# Experimental data from PubChem BioAssay (NCI).
#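 Five concentrations, 48 hours, 96-well plates. The concentration for full growth arrest is given as TGI.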
# Experiments:
# Test in all cases: NCI tumour cell line growth inhibition, 48 h
# MCF7 breast = system: MCF7 breast
# U251 CNS = system: U251 CNS
# SK-MEL-2 melanoma = system: SK-MEL-2 melanoma
# SK-MEL-5 melanoma = system: SK-MEL-5 melanoma
# HCT-15 colon = system: HCT-15 colon
# PC-3 prostate = system: PC-3 prostate
# SR leukemia = system: SR leukemia
# SK-MEL-28 melanoma = system: SK-MEL-28 melanoma
# IGROV1 ovarian = system: IGROV1 ovarian
# DU-145 prostate = system: DU-145 prostate
# RXF 393 renal = system: RXF 393 renal
# T-47D breast = system: T-47D breast
# SNB-75 CNS = system: SNB-75 CNS
# HCT-116 colon = system: HCT-116 colon
# TK-10 renal = system: TK-10 renal
# NCI-H460 lung = system: NCI-H460 lung
# NCI/ADR-RES ovarian = system: NCI/ADR-RES ovarian
# NCI-H226 lung = system: NCI-H226 lung
# HS 578T breast = system: HS 578T breast
# SF-268 CNS = system: SF-268 CNS
# MALME-3M melanoma = system: MALME-3M melanoma
# COLO 205 colon = system: COLO 205 colon
# KM12 colon = system: KM12 colon
# UO-31 renal = system: UO-31 renal
# NCI-H23 lung = system: NCI-H23 lung
# A498 renal = system: A498 renal
# MDA-MB-231 breast = system: MDA-MB-231 breast
# OVCAR-3 ovarian = system: OVCAR-3 ovarian
# EKVX NSCLC = system: EKVX NSCLC
# NCI-H522 lung = system: NCI-H522 lung
# MDA-N = system: MDA-N
# K-562 leukemia = system: K-562 leukemia
# SF-539 CNS = system: SF-539 CNS
# CAKI-1 renal = system: CAKI-1 renal
# SK-OV-3 ovarian = system: SK-OV-3 ovarian
# SW-620 colon = system: SW-620 colon
# OVCAR-5 ovarian = system: OVCAR-5 ovarian
# HT29 colon = system: HT29 colon
# SN12C renal = system: SN12C renal
# OVCAR-4 ovarian = system: OVCAR-4 ovarian
# SNB-19 CNS = system: SNB-19 CNS
# HL-60(TB) leukemia = system: HL-60(TB) leukemia
# LOX IMVI melanoma = system: LOX IMVI melanoma
# CCRF-CEM leukemia = system: CCRF-CEM leukemia
# MOLT-4 leukemia = system: MOLT-4 leukemia
# ACHN renal = system: ACHN renal
# 786-0 renal = system: 786-0 renal
# SF-295 CNS = system: SF-295 CNS
# UACC-62 melanoma = system: UACC-62 melanoma
# UACC-257 melanoma = system: UACC-257 melanoma
# HOP-62 NSCLC = system: HOP-62 NSCLC
# RPMI-8226 leukemia = system: RPMI-8226 leukemia
# MDA-MB-435 = system: MDA-MB-435
# OVCAR-8 ovarian = system: OVCAR-8 ovarian
# M14 melanoma = system: M14 melanoma
# A549 NSCLC = system: A549 NSCLC
# HCC-2998 colon = system: HCC-2998 colon
# HOP-92 NSCLC = system: HOP-92 NSCLC
structure (smiles),measurement,setting,value
CCOC(=O)c1sc2[n+](c1C)C(=O)/C(=C/c1ccccc1Cl)S2,TGI,MCF7 breast,15 µM
same,TGI,U251 CNS,24.4 µM
same,TGI,SK-MEL-2 melanoma,> 74.7 µM
same,TGI,SK-MEL-5 melanoma,1.89 µM
same,TGI,HCT-15 colon,12.9 µM
same,TGI,PC-3 prostate,> 85.6 µM
same,TGI,SR leukemia,17 µM
same,TGI,SK-MEL-28 melanoma,47.3 µM
same,TGI,IGROV1 ovarian,23.3 µM
same,TGI,DU-145 prostate,> 35.6 µM
same,TGI,RXF 393 renal,> 68.1 µM
same,TGI,T-47D breast,55.1 µM
same,TGI,SNB-75 CNS,> 54.3 µM
same,TGI,HCT-116 colon,> 48 µM
same,TGI,TK-10 renal,57 µM
same,TGI,NCI-H460 lung,6.44 µM
same,TGI,NCI/ADR-RES ovarian,16.1 µM
same,TGI,NCI-H226 lung,23.1 µM
same,TGI,HS 578T breast,> 73.3 µM
same,TGI,SF-268 CNS,> 53.5 µM
same,TGI,MALME-3M melanoma,31.5 µM
same,TGI,COLO 205 colon,9.85 µM
same,TGI,KM12 colon,18.2 µM
same,TGI,UO-31 renal,25 µM
same,TGI,NCI-H23 lung,27.7 µM
same,TGI,A498 renal,> 56.8 µM
same,TGI,MDA-MB-231 breast,> 27.8 µM
same,TGI,OVCAR-3 ovarian,21.1 µM
same,TGI,EKVX NSCLC,> 100 µM
same,TGI,NCI-H522 lung,7.65 µM
same,TGI,MDA-N,0.565 µM
same,TGI,K-562 leukemia,24.2 µM
same,TGI,SF-539 CNS,15.2 µM
same,TGI,CAKI-1 renal,24.5 µM
same,TGI,SK-OV-3 ovarian,> 69.2 µM
same,TGI,SW-620 colon,46.5 µM
same,TGI,OVCAR-5 ovarian,> 62 µM
same,TGI,HT29 colon,28.9 µM
same,TGI,SN12C renal,> 100 µM
same,TGI,OVCAR-4 ovarian,> 100 µM
same,TGI,SNB-19 CNS,> 42.7 µM
same,TGI,HL-60(TB) leukemia,> 62.9 µM
same,TGI,LOX IMVI melanoma,19.1 µM
same,TGI,CCRF-CEM leukemia,> 72.8 µM
same,TGI,MOLT-4 leukemia,15 µM
same,TGI,ACHN renal,40 µM
same,TGI,786-0 renal,26.1 µM
same,TGI,SF-295 CNS,4.75 µM
same,TGI,UACC-62 melanoma,19.3 µM
same,TGI,UACC-257 melanoma,> 70.2 µM
same,TGI,HOP-62 NSCLC,60.9 µM
same,TGI,RPMI-8226 leukemia,15.7 µM
same,TGI,MDA-MB-435,> 100 µM
same,TGI,OVCAR-8 ovarian,35 µM
same,TGI,M14 melanoma,> 43.1 µM
same,TGI,A549 NSCLC,> 56.8 µM
CC(NC1=NCCO1)c1ccco1 (stereo not drawn),TGI,MCF7 breast,> 100 µM
same,TGI,U251 CNS,> 100 µM
same,TGI,SK-MEL-2 melanoma,> 100 µM
same,TGI,SK-MEL-5 melanoma,> 100 µM
same,TGI,HCT-15 colon,> 100 µM
same,TGI,PC-3 prostate,> 100 µM
same,TGI,SR leukemia,> 100 µM
same,TGI,SK-MEL-28 melanoma,> 100 µM
same,TGI,IGROV1 ovarian,> 100 µM
same,TGI,DU-145 prostate,> 100 µM
same,TGI,RXF 393 renal,> 100 µM
same,TGI,T-47D breast,> 100 µM
same,TGI,HCT-116 colon,> 100 µM
same,TGI,TK-10 renal,> 100 µM
same,TGI,NCI-H460 lung,> 100 µM
same,TGI,NCI/ADR-RES ovarian,> 100 µM
same,TGI,NCI-H226 lung,> 100 µM
same,TGI,HS 578T breast,> 100 µM
same,TGI,SF-268 CNS,> 100 µM
same,TGI,MALME-3M melanoma,> 100 µM
same,TGI,COLO 205 colon,> 100 µM
same,TGI,KM12 colon,90.2 µM
same,TGI,UO-31 renal,> 100 µM
same,TGI,NCI-H23 lung,> 100 µM
same,TGI,A498 renal,> 100 µM
same,TGI,MDA-MB-231 breast,> 100 µM
same,TGI,OVCAR-3 ovarian,> 100 µM
same,TGI,EKVX NSCLC,> 100 µM
same,TGI,NCI-H522 lung,> 100 µM
same,TGI,MDA-N,> 100 µM
same,TGI,K-562 leukemia,> 100 µM
same,TGI,SF-539 CNS,> 100 µM
same,TGI,CAKI-1 renal,> 100 µM
same,TGI,SK-OV-3 ovarian,> 100 µM
same,TGI,SW-620 colon,> 100 µM
same,TGI,OVCAR-5 ovarian,> 100 µM
same,TGI,HT29 colon,> 100 µM
same,TGI,SN12C renal,> 100 µM
same,TGI,OVCAR-4 ovarian,> 100 µM
same,TGI,SNB-19 CNS,> 100 µM
same,TGI,HL-60(TB) leukemia,> 100 µM
same,TGI,LOX IMVI melanoma,> 100 µM
same,TGI,CCRF-CEM leukemia,> 100 µM
same,TGI,MOLT-4 leukemia,> 100 µM
same,TGI,ACHN renal,> 100 µM
same,TGI,786-0 renal,> 100 µM
same,TGI,SF-295 CNS,> 100 µM
same,TGI,UACC-62 melanoma,> 100 µM
same,TGI,UACC-257 melanoma,> 100 µM
same,TGI,HOP-62 NSCLC,> 100 µM
same,TGI,RPMI-8226 leukemia,> 100 µM
same,TGI,MDA-MB-435,> 100 µM
same,TGI,HCC-2998 colon,> 100 µM
same,TGI,HOP-92 NSCLC,> 100 µM
same,TGI,OVCAR-8 ovarian,> 100 µM
same,TGI,M14 melanoma,> 100 µM
same,TGI,A549 NSCLC,> 100 µM
